Converted amounts (≈) assume the structure as drawn. The source made the active and inactive calls. The calls are words filed in the database; no cut-off is given here.
Tested on: A-431
Assay: Inhibition of EGF-induced [3H]inositol incorporation in to phosphatidylinositol in human A431 cells after 60 mins by liquid scintillation spectrophotometry
Type: functional, cell-based

Compound | IC50 [µg/mL] | Activity
CCC[C@H](O)[C@@]1(CC)C[C@@H](C)[C@](O)([C@]2(C)C[C@H](C)[C@@H]([C@@H](CC)C(=O)[C@@H](C)[C@@H](O)[C@H](C)[C@H]3O[C@@](O)([C@H](CC)C(=O)O)[C@@H](C)[C@H](O)[C@H]3CC)O2)O1 [INOSTAMYCIN] | 0.5 (≈ 0.713 µM) | 
CC[C@@H](C(=O)[C@@H](C)[C@@H](O)[C@@H](C)[C@H]1O[C@@H](CC(=O)OO)[C@H](C)C[C@@H]1C)[C@H]1O[C@](C)([C@]2(O)O[C@](CC)([C@@H](O)CC)C[C@H]2C)C[C@@H]1C |  | Active
CC[C@@]1([C@@H]2O[C@@H]([C@H]3O[C@@](O)(CO)[C@H](C)C[C@@H]3C)C[C@@H]2C)CC[C@H]([C@]2(C)CC[C@]3(C[C@H](O)[C@@H](C)[C@@H]([C@@H](C)[C@@H](OC)[C@H](C)C(=O)O)O3)O2)O1 |  | inactive

Reference: ChEMBL document CHEMBL1158911, “Isolation and Structure Determination of Inostamycin, a Novel Inhibitor of Phosphatidylinositol Turnover” (J Nat Prod, 1990)
